In patent publication US20240116922A1, “IMIDAZO[1,2-A]PYRIDINE DERIVATIVES AS IRAK4 INHIBITORS AND THEIR USE IN THE TREATMENT OF DISEASE” (BIOGEN MA INC., priority 2020, published 2024):
≈ marks a conversion by molar mass, not a printed value. Structures can show the parent of a compound that is named as a salt.

Assays:
MDR1 = MDR1 (Homo sapiens (Human), UniProt P08183); experiment: in vitro; conditions: MDCK-MDR1
[1] = Kinetic solubility assay (CLND), pH 6.8; assay type: physicochemical; conditions: aqueous buffer, kinetic from dmso stock; potassium phosphate buffer pH 6.8, 2% DMSO, 24 hours at ambient temperature
[2] = Kpuu assay (in vivo brain-to-plasma unbound partition); conditions: brain (unbound) versus plasma (unbound); intravenous infusion 4 to 24 h; unbound brain/plasma ratio; read-out: Brain Kpu, u
IRAK4 = IRAK4 (Homo sapiens (Human), UniProt Q9NWZ3); experiment: IRAK4 MSD biochemical assay (2-hour 1 mM ATP); conditions: 0.1 nM IRAK4, 1 mM ATP, 2 hour at room temperature
IRAK4, sequence (Q9NWZ3 whole entry): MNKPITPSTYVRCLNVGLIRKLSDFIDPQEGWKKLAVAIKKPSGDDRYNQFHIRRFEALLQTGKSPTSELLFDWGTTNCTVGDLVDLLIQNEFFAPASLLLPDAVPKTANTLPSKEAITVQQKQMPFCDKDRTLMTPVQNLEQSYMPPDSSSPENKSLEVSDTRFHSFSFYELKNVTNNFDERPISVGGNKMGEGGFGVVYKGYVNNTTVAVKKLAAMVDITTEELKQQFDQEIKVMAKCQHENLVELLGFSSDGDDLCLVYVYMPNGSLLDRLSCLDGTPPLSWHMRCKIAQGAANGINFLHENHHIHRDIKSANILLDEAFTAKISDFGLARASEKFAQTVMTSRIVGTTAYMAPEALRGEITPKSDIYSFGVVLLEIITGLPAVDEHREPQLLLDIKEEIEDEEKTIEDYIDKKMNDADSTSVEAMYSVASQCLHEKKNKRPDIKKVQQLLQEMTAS

MDR1, sequence (P08183 whole entry): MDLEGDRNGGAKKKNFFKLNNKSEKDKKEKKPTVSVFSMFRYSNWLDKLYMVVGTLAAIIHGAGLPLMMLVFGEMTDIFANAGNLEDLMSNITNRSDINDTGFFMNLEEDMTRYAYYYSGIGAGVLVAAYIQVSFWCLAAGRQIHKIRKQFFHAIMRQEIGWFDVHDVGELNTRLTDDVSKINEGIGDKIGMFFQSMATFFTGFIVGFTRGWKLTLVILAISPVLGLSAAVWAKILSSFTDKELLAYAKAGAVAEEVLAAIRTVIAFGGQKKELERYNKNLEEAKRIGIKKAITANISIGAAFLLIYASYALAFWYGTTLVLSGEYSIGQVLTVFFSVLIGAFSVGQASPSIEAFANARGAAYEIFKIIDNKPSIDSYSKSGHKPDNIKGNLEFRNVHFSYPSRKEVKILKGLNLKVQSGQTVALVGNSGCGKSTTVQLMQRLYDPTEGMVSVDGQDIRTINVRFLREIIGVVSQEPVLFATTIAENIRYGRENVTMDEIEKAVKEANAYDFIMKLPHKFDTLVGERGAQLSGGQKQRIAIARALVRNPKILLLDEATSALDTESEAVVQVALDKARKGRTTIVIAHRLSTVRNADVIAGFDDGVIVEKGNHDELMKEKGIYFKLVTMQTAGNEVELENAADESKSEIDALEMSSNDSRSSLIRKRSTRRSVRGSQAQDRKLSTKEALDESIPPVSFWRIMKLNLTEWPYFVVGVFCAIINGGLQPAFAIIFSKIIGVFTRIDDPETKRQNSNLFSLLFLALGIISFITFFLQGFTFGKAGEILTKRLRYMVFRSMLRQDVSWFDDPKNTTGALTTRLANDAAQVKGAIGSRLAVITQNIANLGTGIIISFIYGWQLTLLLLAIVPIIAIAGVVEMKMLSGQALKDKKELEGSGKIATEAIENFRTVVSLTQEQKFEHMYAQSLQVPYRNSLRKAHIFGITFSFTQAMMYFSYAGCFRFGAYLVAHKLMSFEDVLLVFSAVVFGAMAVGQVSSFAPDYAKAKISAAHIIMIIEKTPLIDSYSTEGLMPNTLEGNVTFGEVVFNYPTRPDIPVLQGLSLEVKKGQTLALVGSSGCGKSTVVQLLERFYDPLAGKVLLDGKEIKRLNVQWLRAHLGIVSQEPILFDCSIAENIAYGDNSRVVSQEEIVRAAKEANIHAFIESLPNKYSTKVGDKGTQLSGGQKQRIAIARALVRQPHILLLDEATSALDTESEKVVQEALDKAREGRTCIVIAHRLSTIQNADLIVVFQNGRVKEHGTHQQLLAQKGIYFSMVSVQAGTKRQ

efflux ratio at 120 min, 1 μM (MDR1) | solubility kinetic at 24 h [1] [µg/mL] | Kpuu (unbound brain-to-plasma partition coefficient) [2] | IC50 (IRAK4) [nM] | SMILES
6.3 | 28.5 (≈ 69.6 µM) | 0.3 | 2.3 | CC(C)Oc1cc2nc([C@@]34CC[C@@](C)(C3)OC4)cn2cc1C(=O)Nc1ccn(C)n1 (single isomer, unassigned) [Comparator 3C, reference compound]
7.1 | 57.4 (≈ 124 µM) | 0.26 | 0.2 | CC(C)Oc1cc2nc([C@@]34CC[C@@](C)(C3)OC4)cn2cc1C(=O)Nc1cccn(C2CC2)c1=O (single isomer, unassigned) [Example 4]
6.1 | 32.9 (≈ 71.1 µM) | 0.38 | 0.1 | CC(C)Oc1cc2nc([C@]34CC[C@](C)(C3)OC4)cn2cc1C(=O)Nc1cccn(C2CC2)c1=O (single isomer, unassigned) [Example 5]
5 | 79.2 (≈ 165 µM) | 0.66 | 0.3 | CC(C)Oc1cc2nc([C@@]34CC[C@@](CF)(C3)OC4)cn2cc1C(=O)Nc1cccn(C2CC2)c1=O (single isomer, unassigned) [Example 7]
5.4 | 75.9 (≈ 158 µM) | 0.49 | 0.3 | CC(C)Oc1cc2nc([C@]34CC[C@](CF)(C3)OC4)cn2cc1C(=O)Nc1cccn(C2CC2)c1=O (single isomer, unassigned) [Example 8]
8.1 | 78.6 (≈ 164 µM) | 0.41 | 0.4 | CC[C@H](C)Oc1cc2nc(C34COC(CF)(C3)C4)cn2cc1C(=O)Nc1cccn(C2CC2)c1=O (single isomer, unassigned) [Example 15]
5.5 | 67.1 (≈ 145 µM) | 0.48 | 0.8 | CC[C@@H](C)Oc1nc2nc(C34COC(C)(C3)C4)cn2cc1C(=O)Nc1cccn(C2CC2)c1=O (single isomer, unassigned) [Example 63]
2.8 | 48.8 (≈ 102 µM) | 0.96 | 1.3 | CC(C)Oc1c(C(=O)Nc2cccn(C3CC3)c2=O)cn2cc([C@@]34CC[C@@](C)(C3)OC4)nc2c1F (single isomer, unassigned) [Example 67]
2.9 | 45.7 (≈ 95.7 µM) | 0.89 | 0.7 | CC(C)Oc1nc2nc(C34COC(C)(C3)C4)cn2cc1C(=O)Nc1cccn([C@H]2CC2(C)C)c1=O (single isomer, unassigned) [Example 79]
4 | – | 0.52 | 0.1 | CC(C)Oc1nc2nc([C@@H]3CCCOC3)cn2cc1C(=O)Nc1cccn(C2CC2)c1=O (single isomer, unassigned) [Example 108]
7.1 | 50.2 (≈ 115 µM) | 0.25 | 0.5 | CC(C)Oc1nc2nc(C[C@@H]3CCOC3)cn2cc1C(=O)Nc1cccn(C2CC2)c1=O (single isomer, unassigned) [Example 109]
4.2 | 79 (≈ 164 µM) | 0.73 | 0.7 | CC(C)Oc1cc2nc([C@]34CC[C@](C)(C3)OC4)cn2cc1C(=O)Nc1cccn([C@H]2C[C@@H]2F)c1=O (single isomer, unassigned) [Example 119]
2.8 | 34.5 (≈ 72.2 µM) | 1.34 | 0.4 | CC(C)Oc1nc2nc([C@@]34CC[C@@](C)(C3)OC4)cn2cc1C(=O)Nc1cccn([C@H]2C[C@@H]2C)c1=O (single isomer, unassigned) [Example 149]
10.8 | 64.7 | 0.32 | 0.2 | CC(C)Oc1nc2nc([C@]34CC[C@](C)(C3)OC4)cn2cc1C(=O)Nc1cccn([C@H]2C[C@H]2C)c1=O (single isomer, unassigned) [Example 186, trifluoroacetate]
10.9 | 55.1 | 0.19 | 0.2 | CC(C)Oc1nc2nc(C34CCC(C)(C3)OC4)cn2cc1C(=O)Nc1cccn([C@H]2C[C@H]2C)c1=O (stereo in doubt) [Example 187, 7-isopropoxy-2-((1R,4S)-1-methyl-2-oxabicyclo[2.2.1]heptan-4-yl)-N-(1-((1S,2R)-2-methylcyclopropyl)-2-oxo-1,2-dihydropyridin-3-yl)imidazo[1,2-a]pyrimidine-6-carboxamide trifluoroacetate]
4.3 | 0.3 (≈ 0.672 µM) | 0.3 | 0.2 | Cc1cnc2c(NC(=O)c3cn4cc(C56COC(C)(C5)C6)nc4cc3OC(C)C)cnn2c1 [Comparator 1B, 7-isopropoxy-2-(1-methyl-2-oxabicyclo[2.1.1]hexan-4-yl)-N-(6-methylpyrazolo[1,5-a]pyrimidin-3-yl)imidazo[1,2-a]pyridine-6-carboxamide, reference compound]
8 | 63.2 (≈ 150 µM) | 0.9 | 0.6 | CC(C)Oc1cc2nc(C34COC(C)(C3)C4)cn2cc1C(=O)Nc1cccn(C)c1=O [Comparator 1D, 7-isopropoxy-N-(1-methyl-2-oxo-1,2-dihydropyridin-3-yl)-2-(1-methyl-2-oxabicyclo[2.1.1]hexan-4-yl)imidazo[1,2-a]pyridine-6-carboxamide, reference compound]
1.1 | 2.4 (≈ 5.41 µM) | 0.4 | – | CC(C)Oc1nc2nc(C34COC(C)(C3)C4)cn2cc1C(=O)Nc1cccc(C(F)F)n1 [Comparator 2A, N-(6-(difluoromethyl)pyridin-2-yl)-7-isopropoxy-2-(1-methyl-2-oxabicyclo[2.1.1]hexan-4-yl)imidazo[1,2-a]pyrimidine-6-carboxamide, reference compound]
5.6 | 58.8 (≈ 134 µM) | 0.2 | 0.5 | CC(C)Oc1nc2nc([C@@]34CC[C@@](C)(C3)OC4)cn2cc1C(=O)Nc1cccn(C)c1=O [Comparator 4D, 7-isopropoxy-N-(1-methyl-2-oxo-1,2-dihydropyridin-3-yl)-2-((1S,4R)-1-methyl-2-oxabicyclo[2.2.1]heptan-4-yl)imidazo[1,2-a]pyrimidine-6-carboxamide, reference compound]
2.2 | 39.6 (≈ 93.5 µM) | 0.4 | – | CC(C)Oc1cc2nc(C34CCC(C)(CC3)OC4)cn2cc1C(=O)Nc1ccn(C)n1 [Comparator 5C, 7-isopropoxy-N-(1-methyl-1H-pyrazol-3-yl)-2-(1-methyl-2-oxabicyclo[2.2.2]octan-4-yl)imidazo[1,2-a]pyridine-6-carboxamide, reference compound]
2 | 45.6 (≈ 101 µM) | 0.6 | – | CC(C)Oc1cc2nc(C34CCC(C)(CC3)OC4)cn2cc1C(=O)Nc1cccn(C)c1=O [Comparator 5D, 7-isopropoxy-N-(1-methyl-2-oxo-1,2-dihydropyridin-3-yl)-2-(1-methyl-2-oxabicyclo[2.2.2]octan-4-yl)imidazo[1,2-a]pyridine-6-carboxamide, reference compound]
1.5 | 7.2 (≈ 15.1 µM) | 0 | 0.2 | Cc1cnc2c(NC(=O)c3cn4cc(C56CCC(C)(CC5)OC6)nc4nc3OC(C)C)cnn2c1 [Comparator 6B, 7-isopropoxy-2-(1-methyl-2-oxabicyclo[2.2.2]octan-4-yl)-N-(6-methylpyrazolo[1,5-a]pyrimidin-3-yl)imidazo[1,2-a]pyrimidine-6-carboxamide, reference compound]
1.8 | 48.5 (≈ 114 µM) | 0.2 | 0.9 | CC(C)Oc1nc2nc(C34CCC(C)(CC3)OC4)cn2cc1C(=O)Nc1ccn(C)n1 [Comparator 6C, 7-isopropoxy-N-(1-methyl-1H-pyrazol-3-yl)-2-(1-methyl-2-oxabicyclo[2.2.2]octan-4-yl)imidazo[1,2-a]pyrimidine-6-carboxamide, reference compound]
3 | 11.2 (≈ 24.8 µM) | 0.4 | – | CC(C)Oc1nc2nc(C34CCC(C)(CC3)OC4)cn2cc1C(=O)Nc1cccn(C)c1=O [Comparator 6D, 7-isopropoxy-N-(-methyl-2-oxo-1,2-dihydropyridin-3-yl)-2-(1-methyl-2-oxabicyclo[2.2.2]octan-4-yl)imidazo[1,2-a]pyrimidine-6-carboxamide, reference compound]

SMILES | efflux ratio at 120 min, 1 μM (MDR1) | solubility kinetic at 24 h [1] [µg/mL] | Kpuu (unbound brain-to-plasma partition coefficient) [2] | IC50 (IRAK4) [nM]
C[C@@]12CC[C@@](c3cn4cc(C(=O)Nc5cccn(C6CC6)c5=O)c(OC5CCC5)cc4n3)(CO1)C2 (single isomer, unassigned) [Example 25] | 3.2 | 66.7 (≈ 141 µM) | 0.36 | 0.3
CC[C@H](C)Oc1nc2nc([C@]34CC[C@](C)(C3)OC4)cn2cc1C(=O)Nc1cccn(C2CC2)c1=O [Example 50, 7-((S)-sec-butoxy)-N-(1-cyclopropyl-2-oxo-1,2-dihydropyridin-3-yl)-2-((1R,4S)-1-methyl-2-oxabicyclo[2.2.1]heptan-4-yl)imidazo[1,2-a]pyrimidine-6-carboxamide] | 2.9 | – | 0.66 | 0.5
